Measurements taken from patent US12486300B2, “Mithramycin oxime derivatives having increased selectivity and anti-cancer activity” (University of Kentucky Research Foundation, priority 2018, dated 2025).

Tests used:
[1] = Maximum tolerated dose, daily×5 schedule; assay type: in vivo, mice
[2] = system: TC-32 cells (EWS-FLI1+) subcutaneously implanted; test: Efficacy studies in mouse xenografts (TC-32); assay type: in vivo, mice; settings: for Significant? survival vs. Vehicle: overall significance level 0.05
Method: Efficacy studies in mouse xenografts. TC-32 cells were suspended in 1:1 (v/v) media: Matrigel on ice and injected subcutaneously into the flank of female immunocompromised athymic nude NU/NU mice at a density of 1.0×10^6 cells per 100 μL. Mice with tumors of at least 75 mm^3 were randomly assigned to treatment groups, n=8-12 mice per group and n=6-10 mice per vehicle control treated group. Tumor volumes were monitored every 2-3 days and mice were euthanized once tumor volumes reached 1500 mm^3. In some experiments, tumors were allowed to grow to 20 mm in one direction prior to animals being removed from the study. Average tumor volume among the replicates were plotted, as well as survival plots, using GraphPad Prism 7.03 software. All animal studies were conducted under approved institutional animal care and use committee (IACUC) protocol.
Reference is made to FIGS. 3A-3G, which include data from an efficacy study involving exemplary compound MTM (20). TC-32 cells (EWS-FLI1+) were subcutaneously implanted in female NU/NU mice. Gray shadding starting at 0 days. indicates dosing window. FIG. 3B includes MTM20 at 21 mg/kg, FIG. 3C includes MTM20 at 15 mg/kg, FIG. 3D includes vehicle (control), FIG. 3E includes MTM (control) at 1 mg/kg, and FIG. 3F includes MTM (contro) at 0.65 mg/kg. Dosing route: IV bolus; Schedule: q2d×8.
Reference is made to FIGS. 4A and 4B, and Table 2, which include data from an efficacy/survival study involving exemplary compound MTM(20). TC-32 cells (EWS-FLI1+) were subcutaneously implanted in female NU/NU mice. FIG. 4A includes survival curves and FIG. 4B includes median survival plots of mice (n=6-7/group).
Further Efficacy Studies. Additional efficacy studies are ongoing with MTM20 at a daily schedule (total of 5 doses).
In comparison, nine of 10 tumor volumes, in the control group have increased by 50% or more and one increased approximately 15% above baseline.
In comparison all tumors in the control group grow by 30% or more relative to baseline.

[3] = IV bolus pharmacokinetics in monkey; assay type: in vivo; settings: single monkey, IV bolus 10 mg/kg, 2-compartment modeling
Method: Reference is made to FIGS. 6A and 6B. MTM and exemplary compound MTM(20) were each administered as an IV bolus injection (10 mg/kg) to assess the pharmacokinetics in a single monkey. Estimation of the area under the curve (AUC) was done by 2-compartment modeling. MTM20 has ˜3-fold lower clearance (CL) than mithramycin, which corresponds to an equivalent increase in exposure as measured by the AUC.

[4] = system: TC32 Ewing sarcoma cells, expressing EWS-FLI1; test: Growth inhibition assay, TC32 cells; assay type: cell-based; settings: ratio of GI50 PC3 to TC32
EWS-FLI1 = molecular target: T1, EWS-FLI1 (Homo sapiens, UniProt Q01543+Q01844); settings: Grohar et al. 2011; cited from earlier work
T1 sequence (Q01543 276-373 limits assumed): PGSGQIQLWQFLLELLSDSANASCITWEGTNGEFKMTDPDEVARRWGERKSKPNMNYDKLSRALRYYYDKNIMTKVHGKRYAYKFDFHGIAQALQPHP

[5] = Hematology profile in monkeys; settings: IV bolus 15 mg/kg
Method: Reference is made to FIGS. 7A-7F, which include include data for a hematology profile in monkeys. MTM and MTM20 were dosed as an IV bolus injection (10 mg/kg and 15 mg/kg) in two monkeys each to assess toxicity. […] Gray areas are reference values.

Row | Compound | full MTD of the daily×5 schedule [1] | reduction in tumor volume ([2]; Experiment 1: 14.7 mg/kg (⅔ of MTD), daily schedule 5 doses, 2 days after end of treatment, 7 animals) | tumor volumes decreased, of the original tumor volume ([2]; Experiment 2: 24 mg/kg (full MTD) daily×5, following the 4th dose) | Significant? survival ([2]; MTM20 - 2/3MTD vs. MTM - 2/3MT) | Significant? survival ([2]; MTM20 - 2/3MTD vs. MTM - MTD) | Significant? survival ([2]; MTM20 - MTD vs. MTM20 - 2/3MTD) | Significant? survival ([2]; MTM20 - MTD vs. MTM - 2/3MTD) | Significant? survival ([2]; MTM20 - MTD vs. MTM - MTD) | Significant? survival vs. Vehicle ([2]; at 2/3MTD) | Significant? survival vs. Vehicle ([2]; at MTD) | initial response with new dosing schedules ([2]; daily schedule (5 doses) compared to q2Dx8) | predicted efficacy of standard clinical dosing regimen ([2]; daily×5×2 weeks (qDx5×2w)) | lower clearance (CL) than mithramycin [3] | PC:TC32 (cellular selectivity) [4] | Significant? survival ([2]; MTM - MTD vs. MTM - 2/3MTD) | potency as inhibitor of EWS-FLI1 in Ewing sarcoma cells (EWS-FLI1) | platelets counts [5]
1 | COC(=O)C(Cc1c[nH]c2ccccc12)NC(=O)CON=C(C(O)C(C)O)C(OC)C1Cc2cc3cc(OC4CC(OC5CC(O)C(O)C(C)O5)C(O)C(C)O4)c(C)c(O)c3c(O)c2C(=O)C1OC1CC(OC2CC(OC3CC(C)(O)C(O)C(C)O3)C(O)C(C)O2)C(O)C(C)O1 (stereo not shown) [MTM (20)] | 24 mg/kg | greater than 50% | 10-70% | No | No | No | No | No | Yes | Yes | significantly improved | notably efficacious and potentially curative | ~3 fold | 24.5 |  |  | 
2 | CO[C@H](C(=O)[C@@H](O)[C@@H](C)O)[C@@H]1Cc2cc3cc(O[C@H]4C[C@@H](O[C@H]5C[C@@H](O)[C@H](O)[C@@H](C)O5)[C@H](O)[C@@H](C)O4)c(C)c(O)c3c(O)c2C(=O)[C@H]1O[C@H]1C[C@@H](O[C@H]2C[C@@H](O[C@H]3C[C@](C)(O)[C@H](O)[C@@H](C)O3)[C@@H](O)[C@@H](C)O2)[C@H](O)[C@@H](C)O1 [MTM, Mithramycin] |  |  |  |  |  |  |  |  | No | No |  |  |  |  | No | low-nM | significant reduction in platelets counts
